Values joined by “and” are separate entries in the source; they are usually repeats but may differ in a detail not shown here. Equal entries are not always repeated. Results filed as inconclusive are left out.

For this assay, the system named is CD8F1 mice, subcutaneous mammary adenocarcinoma, T/C%. Kind of assay: NCI In Vivo Anticancer Drug Screen. Data for tumor model Mammary Adenocarcinoma CD8F1 (subcutaneous) in CD8F1. The note with it: higher = larger tumour. The gist of the method:
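Mice carrying transplanted tumors received test compound, and survival or tumor size was recorded. Each value is the treated-group measurement divided by the corresponding measurement in vehicle-dosed controls.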

Where [1] appears, read: endpoint: median tumor weight (est.), dose: 50.0 mg/kg/injection, schedule: Q07DX005 (ip), vehicle: saline.
The mark [2] stands for this setting: endpoint: median tumor weight (est.), dose: 100.0 mg/kg/injection, schedule: Q07DX005 (ip), vehicle: saline.
Setting [3] is: endpoint: median tumor weight (est.), dose: 200.0 mg/kg/injection, schedule: Q07DX005 (ip), vehicle: saline.
Where [4] appears, read: endpoint: median tumor weight (est.), dose: 400.0 mg/kg/injection, schedule: Q07DX005 (ip), vehicle: saline.
[5] abbreviates: endpoint: median tumor weight (est.), dose: 12.5 mg/kg/injection, schedule: Q07DX005 (ip), vehicle: saline.
Setting [6] is: endpoint: median tumor weight (est.), dose: 25.0 mg/kg/injection, schedule: Q07DX005 (ip), vehicle: saline.

For `O=P1(N(CCCl)CCCl)NCCCO1` (stereo unspecified), the T/C reads like this: (endpoint: mean tumor weight, dose: 20.0 mg/kg/injection, schedule: Q01DX018 (ip), vehicle: saline) 8 % of control; (endpoint: mean tumor weight, dose: 37.5 mg/kg/injection, schedule: Q07DX004 (ip), vehicle: saline) 3 % of control; (endpoint: mean tumor weight, dose: 40.0 mg/kg/injection, schedule: Q01DX009 (ip), vehicle: saline) 4 % of control and 9 % of control; (endpoint: mean tumor weight, dose: 50.0 mg/kg/injection, schedule: Q07DX004 (ip), vehicle: saline) 3 % of control; (endpoint: median tumor weight (est.), dose: 10.0 mg/kg/injection, schedule: Q01DX005 (ip), vehicle: saline) 55 % of control; (endpoint: median tumor weight (est.), dose: 20.0 mg/kg/injection, schedule: Q01DX005 (ip), vehicle: saline) 1 % of control. The T/C was 80 % of control (endpoint: median tumor weight (est.), dose: 25.0 mg/kg/injection, schedule: Q01DX005 (ip), vehicle: saline); 17 % of control (endpoint: median tumor weight (est.), dose: 37.5 mg/kg/injection, schedule: Q01DX005 (ip), vehicle: saline); 60 % of control (endpoint: median tumor weight (est.), dose: 37.5 mg/kg/injection, schedule: Q04DX005 (ip), vehicle: saline); 8 % of control (endpoint: median tumor weight (est.), dose: 40.0 mg/kg/injection, schedule: Q01DX005 (ip), vehicle: saline); 15 % of control (endpoint: median tumor weight (est.), dose: 50.0 mg/kg/injection, schedule: Q01DX005 (ip), vehicle: saline); 11 % of control (endpoint: median tumor weight (est.), dose: 50.0 mg/kg/injection, schedule: Q04DX005 (ip), vehicle: saline). The T/C is 27 % of control under setting [1]; 6 % of control (endpoint: median tumor weight (est.), dose: 67.0 mg/kg/injection, schedule: Q07DX005 (ip), vehicle: saline); 1 % of control (endpoint: median tumor weight (est.), dose: 75.0 mg/kg/injection, schedule: Q01DX005 (ip), vehicle: saline); 1 % of control (endpoint: median tumor weight (est.), dose: 75.0 mg/kg/injection, schedule: Q04DX005 (ip), vehicle: saline); 5 % of control (endpoint: median tumor weight (est.), dose: 75.0 mg/kg/injection, schedule: Q07DX005 (ip), vehicle: saline); 2 % of control (endpoint: median tumor weight (est.), dose: 80.0 mg/kg/injection, schedule: Q01DX005 (ip), vehicle: saline). The T/C under setting [2] was 1 % of control; the T/C (endpoint: median tumor weight (est.), dose: 111.0 mg/kg/injection, schedule: Q01DX001 (ip), vehicle: saline) was 32 % of control; the T/C (endpoint: median tumor weight (est.), dose: 167.0 mg/kg/injection, schedule: Q01DX001 (ip), vehicle: saline) is 34 % of control; the T/C (endpoint: median tumor weight (est.), dose: 250.0 mg/kg/injection, schedule: Q01DX001 (ip), vehicle: saline) is 9 % of control; the T/C (endpoint: median tumor weight change, dose: 25.0 mg/kg/injection, schedule: Q01DX001 (ip), vehicle: saline) is 91 % of control; the T/C (endpoint: median tumor weight change, dose: 50.0 mg/kg/injection, schedule: Q01DX001 (ip), vehicle: saline) is 42 % of control and 62 % of control. In addition, the T/C runs as follows: (endpoint: median tumor weight change, dose: 100.0 mg/kg/injection, schedule: Q01DX001 (ip), vehicle: saline) 5 % of control and 29 % of control; (endpoint: median tumor weight change, dose: 400.0 mg/kg/injection, schedule: Q01DX001 (ip), vehicle: saline) -56 % of control.

On to `O=[N+]([O-])c1ccc(Cl)c([N+](=O)[O-])c1`, for which the T/C was 78 % of control (endpoint: median tumor weight (est.), dose: 15.0 mg/kg/injection, schedule: Q07DX005 (ip), vehicle: saline with Tween-80); 61 % of control and 83 % of control (endpoint: median tumor weight (est.), dose: 120.0 mg/kg/injection, schedule: Q07DX005 (ip), vehicle: saline with Tween-80); 65 % of control (endpoint: median tumor weight (est.), dose: 240.0 mg/kg/injection, schedule: Q07DX005 (ip), vehicle: saline with Tween-80).

Consider `ClCC[N+]12CC[N+](CCCl)(CC1)C2`, for which the T/C (endpoint: mean tumor weight, dose: 12.5 mg/kg/injection, schedule: Q07DX006 (ip), vehicle: water) was 16 % of control; the T/C (endpoint: mean tumor weight, dose: 25.0 mg/kg/injection, schedule: Q07DX006 (ip), vehicle: water) is 85 % of control; the T/C (endpoint: mean tumor weight, dose: 50.0 mg/kg/injection, schedule: Q07DX006 (ip), vehicle: water) is 72 % of control; the T/C (endpoint: mean tumor weight, dose: 100.0 mg/kg/injection, schedule: Q07DX006 (ip), vehicle: water) is 18 % of control; the T/C (endpoint: mean tumor weight, dose: 200.0 mg/kg/injection, schedule: Q07DX006 (ip), vehicle: water) is 3 % of control; the T/C (endpoint: median tumor weight (est.), dose: 12.5 mg/kg/injection, schedule: Q07DX005 (ip), vehicle: water) was 70 % of control. For the same compound, the T/C is, setting by setting: (endpoint: median tumor weight (est.), dose: 25.0 mg/kg/injection, schedule: Q07DX005 (ip), vehicle: water) 54 % of control; under setting [1], 68 % of control and 50 % of control; (endpoint: median tumor weight (est.), dose: 50.0 mg/kg/injection, schedule: Q07DX005 (ip), vehicle: water) 49 % of control; (endpoint: median tumor weight (est.), dose: 100.0 mg/kg/injection, schedule: Q07DX005 (ip), vehicle: water) 32 % of control; under setting [3], 20 % of control; under setting [4], 6 % of control.

Turning to `C=C(C)/C([O-])=N/[N+](C)(C)CC(O)CCCCCCCCCCCC` (stereo unspecified), the T/C reads like this: (endpoint: median tumor weight change, dose: 125.0 mg/kg/injection, schedule: Q01DX001 (ip), vehicle: saline) 63 % of control; (endpoint: median tumor weight change, dose: 250.0 mg/kg/injection, schedule: Q01DX001 (ip), vehicle: saline) 111 % of control.

With `Cc1cc(N/N=C/c2ccccn2)nc2ccccc12`, the T/C by setting is: (endpoint: median tumor weight change, dose: 31.25 mg/kg/injection, schedule: Q01DX001 (ip), vehicle: Klucel (hydroxypropylcellulose) (HPC)) 92 % of control; (endpoint: median tumor weight change, dose: 62.5 mg/kg/injection, schedule: Q01DX001 (ip), vehicle: Klucel (hydroxypropylcellulose) (HPC)) 100 % of control; (endpoint: median tumor weight change, dose: 125.0 mg/kg/injection, schedule: Q01DX001 (ip), vehicle: Klucel (hydroxypropylcellulose) (HPC)) 96 % of control; (endpoint: median tumor weight change, dose: 250.0 mg/kg/injection, schedule: Q01DX001 (ip), vehicle: Klucel (hydroxypropylcellulose) (HPC)) 59 % of control.

As for `CC(=O)OCC1OC(OC(C)=O)C(NC(=O)N(CCCl)N=O)C(OC(C)=O)C1OC(C)=O` (stereo unspecified), the T/C was 61 % of control (endpoint: median tumor weight (est.), dose: 1.5 mg/kg/injection, schedule: Q07DX005 (ip), vehicle: Klucel (hydroxypropylcellulose) (HPC)); 41 % of control and 63 % of control and 66 % of control (endpoint: median tumor weight (est.), dose: 3.0 mg/kg/injection, schedule: Q07DX005 (ip), vehicle: Klucel (hydroxypropylcellulose) (HPC)).

Consider `NC(=S)c1ncn(C2OC(CO)C(O)C2O)c1N` (stereo unspecified), for which the T/C runs as follows: under setting [5], 31 % of control; under setting [6], 48 % of control; (endpoint: median tumor weight (est.), dose: 25.0 mg/kg/injection, schedule: Q07DX005 (ip), vehicle: suspension in saline) 192 % of control; under setting [1], 39 % of control; (endpoint: median tumor weight (est.), dose: 50.0 mg/kg/injection, schedule: Q07DX005 (ip), vehicle: suspension in saline) 49 % of control; under setting [2], 31 % of control. The T/C is 45 % of control (endpoint: median tumor weight (est.), dose: 100.0 mg/kg/injection, schedule: Q07DX005 (ip), vehicle: suspension in saline); 12 % of control under setting [3]; 95 % of control (endpoint: median tumor weight (est.), dose: 200.0 mg/kg/injection, schedule: Q07DX005 (ip), vehicle: suspension in saline); 10 % of control under setting [4]; 121 % of control (endpoint: median tumor weight (est.), dose: 400.0 mg/kg/injection, schedule: Q07DX005 (ip), vehicle: suspension in saline).

With `CC[As](=O)(O)CC`, the T/C by setting is: (endpoint: mean tumor weight, dose: 12.5 mg/kg/injection, schedule: Q07DX005 (ip), vehicle: saline) 100 % of control; (endpoint: mean tumor weight, dose: 12.5 mg/kg/injection, schedule: Q07DX007 (ip), vehicle: saline) 70 % of control; (endpoint: mean tumor weight, dose: 25.0 mg/kg/injection, schedule: Q07DX005 (ip), vehicle: saline) 34 % of control; (endpoint: mean tumor weight, dose: 25.0 mg/kg/injection, schedule: Q07DX007 (ip), vehicle: saline) 56 % of control; (endpoint: mean tumor weight, dose: 50.0 mg/kg/injection, schedule: Q07DX007 (ip), vehicle: saline) 38 % of control; (endpoint: mean tumor weight, dose: 100.0 mg/kg/injection, schedule: Q07DX005 (ip), vehicle: saline) 98 % of control. Moreover, the T/C reads like this: (endpoint: mean tumor weight, dose: 100.0 mg/kg/injection, schedule: Q07DX007 (ip), vehicle: saline) 111 % of control; (endpoint: mean tumor weight, dose: 200.0 mg/kg/injection, schedule: Q07DX005 (ip), vehicle: saline) 41 % of control; (endpoint: mean tumor weight, dose: 200.0 mg/kg/injection, schedule: Q07DX007 (ip), vehicle: saline) 53 % of control; under setting [5], 96 % of control and 119 % of control; under setting [6], 62 % of control and 79 % of control; under setting [1], 121 % of control. In addition, the T/C under setting [3] was 20 % of control and 41 % of control and 43 % of control.

Take `O=C(Nc1ccc(C2=NCCN2)cc1)c1ccc(C(=O)Nc2ccc(C3=NCCN3)cc2)c(Cl)c1`: the T/C reads like this: (endpoint: mean tumor weight, dose: 6.25 mg/kg/injection, schedule: Q07DX004 (ip), vehicle: saline with Tween-80) 70 % of control; (endpoint: mean tumor weight, dose: 12.5 mg/kg/injection, schedule: Q07DX004 (ip), vehicle: saline with Tween-80) 77 % of control; (endpoint: mean tumor weight, dose: 25.0 mg/kg/injection, schedule: Q07DX004 (ip), vehicle: saline with Tween-80) 71 % of control.

The record behind these values is PubChem BioAssay AID220 (DTP/NCI, 2004).
